From patent US10987293B2, “Composition for skin external application” (DR. RAYMOND LABORATORIES, INC., priority 2018, dated 2021)

Test system: fertilized eggs of the zebrafish
Assay: Developmental toxicity in zebrafish
Type: in vivo
Conditions: 1, 10, 100 μg/mL; 4 hours exposure; judged 24 and 48 hours after fertilization
Procedure: 4. Confirmation of Presence of Developmental Toxicity in Zebrafish
In this case, a 1% DMSO aqueous solution that was a stock solution was used as the control material.
Specifically, each of the samples was prepared at concentrations of 1, 10, and 100 μg/mL using the stock solution. After each of the samples was adjusted to these concentrations, fertilized eggs of the zebrafish were exposed to each of the samples for 4 hours. 24 hours after fertilization (20 hours after the exposure to each of the samples) and 48 hours after fertilization (44 hours after the exposure to each of the samples), it was judged whether or not the samples were toxic overall. In this case, the toxicity was evaluated based on the indicators divided into eight categories (Normal Development; Death; Coagulated Egg; Necrotic Tissue; Eye Development Alteration; Edema (Pericardial Edema); Tail Formation; and General Retardation).
That is, it was confirmed that the serinol-based compound according to the present invention had no developmental toxicity.

CCCCCCCCCCCCCCCC(=O)NC(CO)CO [palmitoyl serinol]
developmental toxicity (development of fertilized eggs): developed normally
